The values that follow come from patent US9133220B2, “Boron-containing 5-arylidene-3,5-dihydro-4H-imidazol-4-ones” (Evrogen Joint Stock Company, priority 2012, dated 2015).

A short description of series [1]: Photoacidity: acidity constants of ground and excited states. Format: physicochemical. An excerpt:
Photoacidity is an ability to dissociate with formation of H^+ ion under the action of visible light. Photoacidity is characterized by constants of acidity of ground and excited states. Förster's equation describes the relationship between acidity constants of ground and excited states and energy of transfer between the states.
For compounds of the formula I, containing phenolic OH-group, high photoacidity—an ability to dissociate with formation of H^+ ion under the action of visible light—is a distinctive feature. […] (^1)((Z)-4-(2-(difluoroboryl)-3,5-difluoro-4-hydroxybenzylidene)-1,2-dimethyl-1H-imidazole-5(4H)-one)

Series [2] can be described thus: Chemical stability at high pH. Format: physicochemical. Conditions: pH 11, 70° C., 2 hours. The source says: Compound of the general formula I differ from the majority of fluorescent dyes because of their high resistance to the action of different chemical factors—nucleophiles and high pH. […] It should be noted, that long-time heating in alkaline conditions may result in exchange of fluorine atoms from difluoroboryl residue to hydroxyl groups, however no significant change in absorption and fluorescence spectra is observed.

A short description of series [3]: Measuring spectral characteristics (absorption and emission maxima, extinction coefficients). Format: physicochemical. The method, then:
(§1) To measure spectral characteristics of some compounds with the formula I weighted portions of compounds p-NH2-BDI-BF2, p-dimethylamino-BDI-BF2, p-diethylamino-BDI-BF2, p-HOBDI-BF2, di-F-p-HOBDI-BF2, p-diethylamino-BDI-dimethylaminoethenyl-BF2 and p-HOBDI-dimethylaminoethenyl-BF2 were dissolved in water, ethanol and acetonitrile. Absorption spectra were measured on Varian Cary 100 Bio spectrophotometer, fluorescence spectra were measured on Varian Cary Eclipse scanning spectrofluorometer.
The values of absorption and emission maxima and molar extinction coefficients for examples of compounds with the formula I in the indicated solvents are listed in a Table 2. Emission peaks of the investigated compounds settle into a rather wide range from 485 nm for p-HOBDI-BF2 to 598 nm for p-diethylamino-BDI-dimethylamino-ethenyl-BF2.

Series [4] in a line: Quantum yield of fluorescence. Format: physicochemical. Here is the method: as §1
The compounds p-NH2-BDI-BF2, p-HOBDI-BF2 (anionic form), di-Fp-HOBDI-BF2 (anionic form), p-diethylamino-BDI-dimethylaminoethenyl-BF2, p-HOBDI-dimethylaminoethenyl-BF2 (anionic form) have rather high quantum yields of fluorescence in water solutions.

Series [5] in a line: Determination of solubility in water. The note with it: thermodynamic from solid. Format: physicochemical. The method, then:
To determine the solubility in water of compounds an excess amount of analyzed substance was put in a known volume of a solvent and stirred for 5 hours at r.t. The obtained mixture was centrifuged, and the concentration of a compound in mother liquor was measured with spectrophotometric method on the base of molar extinction coefficients data.

Series [6] is described as follows: Measuring spectral characteristics (absorption and emission maxima, extinction coefficients). Format: physicochemical. Conditions: excitation at 488 nm, detection at 500-540 nm.
Series [7] deals with cell membranes of HeLa Kyoto and HEK293 cell lines. Description: Staining of cell membranes and comparison of photostability with EGFP. The class given is cell-based, human. Here is the method:
Human cell cultures HeLa and HEK293 were grown in standart conditions and analyzed by wide field fluorescent and confocal laser scanning microscopy (excitation at 488 nm, detection at 500-540 nm).
The cell staining of the cells, temporarily expressing chimer protein EGFP-XRCC (nuclear localization), was carried out by p-diethylamino-BDI-BF2 in concentration 5 μM to compare fluorescent properties of the compound p-diethylamino-BDI-BF2 to the green fluorescent protein EGFP.

Molecules are shown by their SMILES. Values after ≈ are worked out from the molar mass of the structure shown. Values joined by “and” are separate entries in the source; they are usually repeats but may differ in a detail not shown here. Equal entries are not always repeated. Where two headings read alike, the source gives them in different places.

For the compound `CC1=N/C(=C\c2ccc(O)cc2B(F)F)C(=O)N1C` [p-HOBDI-BF2, (Z)-4-(2-(difluoroboryl)-4-hydroxybenzylidene)-1,2-dimethyl-1H-imidazole-5(4H)-one], the pKa in series [1] (excited state) turned out to be 2; in series [1] (ground state, phenol group), 6.4. Besides, the “effect of incubation on absorption and emission spectra” value in series [2] is reported as “doesn't affect significantly”. In addition, the Abs. peak in series [3] (acetonitrile, anionic form) was 521 nm; in series [3] (acetonitrile, neutral form), 402 nm; in series [3] (ethanol, anionic form) it was 512 nm; in series [3] (ethanol, neutral form) it was 416 nm; in series [3] (water, anionic form), 485 nm; in series [3] (water, neutral form), 404 nm. For the same compound, the Emis. peak in series [3] (acetonitrile, anionic form) worked out at 540 nm; in series [3] (acetonitrile, neutral form), 469 nm; in series [3] (ethanol, anionic form), 532 nm; in series [3] (ethanol, neutral form) it was 483 nm; in series [3] (water, anionic form) it was 520 nm; in series [3] (water, neutral form), 485 nm. Besides, the ext. coef. in series [3] (acetonitrile, neutral form) turned out to be 31000 M⁻¹ cm⁻¹; in series [3] (ethanol, anionic form), 55000 M⁻¹ cm⁻¹; in series [3] (ethanol, neutral form) it was 25000 M⁻¹ cm⁻¹; in series [3] (water, anionic form) it was 47000 M⁻¹ cm⁻¹; in series [3] (water, neutral form), 26000 M⁻¹ cm⁻¹. Further, the entries for the “shift of emission and absorption spectra with change of more polar solvent (water) to less polar (ethanol, acetonitrile)” value in series [3] (anionic form) and in series [3] (neutral form) were “bathochromic shift” and “hypsochromic shift”, respectively. Further, the “bathochromic shift of emission and absorption spectra relative to p-HOBDI” value in series [3] (different solvents) is 30-40 nm. Further, the “Quantum yield of fluorescence” value came to 0.73 in series [4] (acetonitrile); 0.73 in series [4] (acetonitrile, anionic form); 0.54 in series [4] (water, anionic form). In series [4] (acetonitrile), the fluorescence lifetime is recorded as 3.2 ns. Moreover, the solubility at 5 h is around 1000 µM (≈ 264 µg/mL) in series [5] (acidic and neutral pH values, r.t.); 1 µM (≈ 0.264 µg/mL) in series [5] (acidic and neutral values of pH).

In the case of `CCN(CC)c1ccc(/C=C2\N=C(C)N(C)C2=O)c(B(F)F)c1` [p-diethylamino-BDI-BF2, (Z)-4-(4-(diethylamino)-2-(difluoroboryl)benzylidene)-1,2-dimethyl-1H-imidazole-5(4H)-one], the “difference in the brightness of fluorescence in water and organic phases” value in series [6] is recorded as “more than 10 times”. The “shift of emission and absorption spectra with change of more polar solvent (water) to less polar (ethanol, acetonitrile)” value in series [3] was “hypsochromic shift”. The Abs. peak is 493 nm in series [3] (acetonitrile); 506 nm in series [3] (ethanol); 518 nm and 514 nm in series [3] (water). Further, the Emis. peak came to 553 nm in series [3] (acetonitrile), 558 nm in series [3] (ethanol) and 562 nm in series [3] (water). Further, the results for the ext. coef. in series [3] (acetonitrile), in series [3] (ethanol) and in series [3] (water) were 54000 M⁻¹ cm⁻¹, 59000 M⁻¹ cm⁻¹ and 54000 M⁻¹ cm⁻¹, respectively. In addition, the “Quantum yield of fluorescence” value in series [4] (acetonitrile) was 0.34; in series [4] (ethanol) it was 0.22; in series [4] (in organic solvents), 0.2-0.35; in series [4] (water), 0.05. For the same compound, the “accumulation in cell membranes” value in series [7] is “accumulated in cell membranes”. Also, in series [7] (1-5 μM, excitation 488 nm, detection 500-540 nm), the “fluorescence after addition to the cell medium” value is “bright yellow-green fluorescence was detected, associated with intracellular membrane structues and lipid drops”.

In general, pKa refers to the negative logarithm of the acid dissociation constant. A lower pKa goes with a stronger acid or weaker base. As a reminder, the solubility is the dissolved amount per volume that the medium holds.
